Patent US6090958A, “Compounds and compositions for delivering active agents” (Emisphere Technologies, Inc., priority 1997, dated 2000)

Conditions: rat, in vivo, 50 mg/kg
Procedure: An intracolonic dosing composition containing 50 mg/kg of carrier 9 and 250 μg/kg of interferon in 50% propylene glycol was prepared. Rats were administered the dosing composition by intracolonic instillation.
Rats were administered, orally and by intracolonic instillation, dosing solutions of 1 mg/kg of interferon and no carrier.

Mean peak serum interferon concentration: 2611±695
Compound: O=C(O)CCCc1ccc(NC(=O)COc2ccccc2)cc1 [Compound 9]
